From patent publication US5378844A, “8-(1-aminocycloalkyl)-1,3-dialkylxanthine derivatives, preparation process and antidepressant, nootropic and psychostimulant composition thereoff” (Biomedica Foscama Industria Chimico-Farmaceutica S.p.A., priority 1992, dated 1995)
Read-outs that look alike come from different tables or passages of the source.

What was measured:
[1] = test system: White male CD 1 (Charles River) mice; experiment: Nootropic activity: "Passive avoidance" test (amnesia induced by scopolamine); assay type: in vivo; conditions: scopolamine 2 mg/kg i.p.
[2] = test system: Male white CD 1 (Charles River) mice; experiment: Antidepressant activity: antagonism to reserpine (hypothermia induced by reserpine); assay type: in vivo; conditions: 4 h after reserpine 2.5 mg/kg i.p.
Procedure: Male white CD 1 (Charles River) mices weighing 23-35 g were used. Before every test, the basal rectal temperature of every mouse is registered. […] The rectal temperature is measured again at t=O and 30', 60', 90' and 120' after administration of the drug.

[3] = test system: Male Wistar (Charles River) rats; experiment: Locomotor activity: "Activity cage" test; assay type: in vivo; conditions: Rattus norvegicus, ip, read-out: DE50 (ED50 for % increase of spontaneous motion activity)
From the text: This test allows the spontaneous locomotor activity of the animal to be studied. Male Wistar (Charles River) rats weighing 150-250 g were used. […] The printer connected to the system records the number of movements performed by the rats within the first 5' from the moment they enter the cage.

[4] = test system: White male CD 1 (Charles River) mice; experiment: Antidepressant activity: "Behavioral despair" test (Porsolt); assay type: in vivo; conditions: relative to control group
Procedure: The test described in R. D. Porsolt et al., Arch.Int.Pharmacodyn. 229, 327 (1977), which allows the antidepressant activity of a drug to be evaluated on an animal placed in an unusual, stress-causing environment, such as the water environment, was carried out. White male CD 1 (Charles River) mice weighing 24-35 g were used.
1 h before the immersion in water, the animal is administered the test compound by the intraperitoneal (i.p.) route. […] As the reference substances the xanthines theophylline and caffeine, the nootropically acting drug oxiracetam and the tricyclic antidepressant desipramine were included.

adenosine A1 receptors = target: T1, adenosine A1 receptors (Rattus norvegicus, UniProt P25099); experiment: Binding to the adenosine A1 receptors, (3H)-DPCPX displacement, synaptosomal membranes from rat brain; conditions: for Ki: rat brain synaptosomal membranes, 0.3 nM (3H)-DPCPX, 1 h at 25° C., pH 7.4, Ki from IC50 via Cheng-Prusoff
T1 construct: preparations of sinaptosomial membranes from rat brain; from tissue; host or cells: rat brain synaptosomal membranes
T1 sequence (P25099 1-326): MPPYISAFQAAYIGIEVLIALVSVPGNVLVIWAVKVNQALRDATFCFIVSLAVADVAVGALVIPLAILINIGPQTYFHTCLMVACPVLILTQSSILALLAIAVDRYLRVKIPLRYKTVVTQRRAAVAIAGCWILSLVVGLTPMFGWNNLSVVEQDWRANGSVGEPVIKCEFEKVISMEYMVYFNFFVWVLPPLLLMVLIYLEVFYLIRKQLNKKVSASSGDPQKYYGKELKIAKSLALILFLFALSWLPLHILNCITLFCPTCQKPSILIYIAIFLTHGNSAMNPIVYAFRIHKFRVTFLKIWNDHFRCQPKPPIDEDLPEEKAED
Procedure: The receptor binding tests were carried out on preparations of sinaptosomial membranes from rat brain. Binding to the A1 receptors has been carried out as follows: 200 μg of membrane proteins were incubated for 1 h at 25° C. with the test substance and 0.3 nM (3H)-DPCPX in 400 μl of 50 mM tris-HCl pH=7.4. The non-specific binding was determined with 20 μM R-PIA. The binding to the A2 receptors was carried out by incubating 200 μg of membrane proteins for 1 h at 25° C. with the test substance, 4 nM (3H)-NECA and 50 nM CPA. The non-specific binding was determined with 200 μM CPA. The incubations were blocked by centrifugal methods and the separation of the bound from free material was carried out, followed by determination of the contained radioactivity by liquid scintillation. The dosis-inhibition curves were obtained by assaying the receptor displacement at 14 different concentrations of the test substance (all the tests are carried out in triplicate). The tested substances were dissolved into dimethylsulfoxide and diluted in 50 mM Tris-HCl, buffer pH=7.4. The IC50 values were determined by means of non-linear regression curves and transformed into Ki values according to the Cheng-Prusoff equation.

adenosine A2 receptors = target: T2, adenosine A2 receptors (Rattus norvegicus, UniProt P30543); experiment: Binding to the adenosine A2 receptors, (3H)-NECA + 50 nM CPA, synaptosomal membranes from rat brain; conditions: 4 nM (3H)-NECA and 50 nM CPA, 1 h at 25° C., Ki from IC50 via Cheng-Prusoff
T2 construct: preparations of sinaptosomial membranes from rat brain; from tissue; host or cells: rat brain synaptosomal membranes
Procedure: The receptor binding tests were carried out on preparations of sinaptosomial membranes from rat brain.
200 μg of membrane proteins were incubated for 1 h at 25° C. with the test substance and 0.3 nM (3H)-DPCPX in 400 μl of 50 mM tris-HCl pH=7.4. The non-specific binding was determined with 20 μM R-PIA. The binding to the A2 receptors was carried out by incubating 200 μg of membrane proteins for 1 h at 25° C. with the test substance, 4 nM (3H)-NECA and 50 nM CPA. The non-specific binding was determined with 200 μM CPA.
The incubations were blocked by centrifugal methods and the separation of the bound from free material was carried out, followed by determination of the contained radioactivity by liquid scintillation. The dosis-inhibition curves were obtained by assaying the receptor displacement at 14 different concentrations of the test substance (all the tests are carried out in triplicate). The tested substances were dissolved into dimethylsulfoxide and diluted in 50 mM Tris-HCl, buffer pH=7.4. The IC50 values were determined by means of non-linear regression curves and transformed into Ki values according to the Cheng-Prusoff equation.

[5] = dose 10 (unit not given), i.p. 1 h before acquisition trial
[6] = 30' before activity cage, movements within first 5', relative to control group
[7] = 10 mg/kg i.p., 1 h before immersion

T2 sequence (P30543 whole entry): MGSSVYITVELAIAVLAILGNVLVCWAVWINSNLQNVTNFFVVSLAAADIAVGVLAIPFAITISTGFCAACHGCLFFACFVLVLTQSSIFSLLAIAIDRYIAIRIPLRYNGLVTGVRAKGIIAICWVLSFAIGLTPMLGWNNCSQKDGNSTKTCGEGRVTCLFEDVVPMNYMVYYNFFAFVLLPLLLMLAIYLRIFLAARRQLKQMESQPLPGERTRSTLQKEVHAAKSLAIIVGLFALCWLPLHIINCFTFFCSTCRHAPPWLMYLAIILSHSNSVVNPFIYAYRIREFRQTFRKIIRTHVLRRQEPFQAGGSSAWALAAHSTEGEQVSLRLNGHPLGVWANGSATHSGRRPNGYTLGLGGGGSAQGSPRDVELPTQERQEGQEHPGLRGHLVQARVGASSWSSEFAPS

Question: How did the “ANTIAMNESIC ACTIVITY (percentage of animals that do not trespass the door)” value [1, 5] turn out when `Cn1c(=O)c2c(ncn2C)n(C)c1=O` [CAFFEINE] was run?
Answer: Its value is 60%.

Question: And the “Δ TEMPERATURE (maximum temperature variation relative to t=0)” value ([2]; 20 mg/kg i.p.)?
Answer: Its value is “+1.63 °C”.

Question: And the ED50 [3]?
Answer: The ED50 was 4.33 mg/kg.

Question: What about the “% VARIATION OF MOTI[…] LENGTH” value ([4]; 25 mg/kg (os)) of the same compound?
Answer: Its value is -30.34%.

Question: With `CNCCCN1c2ccccc2CCc2ccccc21` [DESIPRAMINE] as the compound, how does the “ANTIAMNESIC ACTIVITY (percentage of animals that do not trespass the door)” value ([1]; dose 45 (unit not given), i.p. 1 h before acquisition trial) read?
Answer: Its value is 30%.

Question: What about the “Δ TEMPERATURE (maximum temperature variation relative to t=0)” value ([2]; 16 mg/kg i.p.) of the same compound?
Answer: The value was “+1.39 °C”.

Question: What about the “% VARIATION OF MOTIONLESSNESS TIME LENGTH” value ([4]; 15 mg/kg i.p.) of the same compound?
Answer: The value was -24.50%.

Question: `CCCn1c(=O)c2[nH]c(C3(NC(=O)CC(=O)O)CCCC3)nc2n(CCC)c1=O` [COMPOUND EX. 12, 1,3-dipropyl-8-(1-emimalonamidocyclopentyl)xanthine] was tested. Which Ki (adenosine A1 receptors) did it give?
Answer: The Ki was 6990 nM.

Question: How did the “ANTIAMNESIC ACTIVITY (percentage of animals that do not trespass the door)” value [1, 5] turn out when `CCCn1c(=O)c2[nH]c(C3(N)CCCC3)nc2n(CCC)c1=O` [COMPOUND EX. 1, 8-(1-aminocyclopentyl)-1,3-dipropylxanthine] was run?
Answer: Its value is 80%.

Question: And the Ki (adenosine A2 receptors)?
Answer: The Ki was 54600 nM.

Question: And the “Δ TEMPERATURE (maximum temperature variation relative to t=0)” value ([2]; 10 mg/kg i.p.)?
Answer: The value was “+0.26 °C”.

Question: What about the “Δ TEMPERATURE (maximum temperature variation relative to t=0)” value ([2]; 20 mg/kg i.p.) of the same compound?
Answer: Its value is “+0.71 °C”.

Question: And the ED50 [3, 6]?
Answer: Its ED50 is 0.492 mg/kg.

Question: What about the Ki (adenosine A1 receptors) of the same compound?
Answer: Its Ki is 26 nM.

Question: And the “SELECTIVITY (A2/A1)” value (adenosine A1 receptors; ratio of Ki,A2 to Ki,A1)?
Answer: The value was 2100.

Question: What about the “% VARIATION OF MOTIONLESSNESS TIME LENGTH” value [4, 7] of the same compound?
Answer: The value was -28.33%.

Question: What about the “% VARIATION OF MOTIONLESSNESS TIME LENGTH” value ([4]; 20 mg/kg i.p., 1 h before immersion) of the same compound?
Answer: Its value is -42.93%.

Question: Which results are given for `Cn1c(=O)c2[nH]cnc2n(C)c1=O` [THEOPHYLLINE, 1,3-dimethylxanthine]?
Answer: ANTIAMNESIC ACTIVITY (percentage of animals that do not trespass the door) ([1]; dose 20 (unit not given), i.p. 1 h before acquisition trial): 30%; Δ TEMPERATURE (maximum temperature variation relative to t=0) ([2]; 20 mg/kg i.p.): +0.81 °C; ED50 [3]: ~3.75 mg/kg; % VARIATION OF MOTI[…] LENGTH ([4]; 18.7 mg/kg (os)): -48.88%

Question: Which results are given for `NC(=O)CN1CC(O)CC1=O` (stereo not drawn) [OXIRACETAM]?
Answer: ANTIAMNESIC ACTIVITY (percentage of animals that do not trespass the door) ([1]; dose 1000 (os) (unit not given)): 40%; % VARIATION OF MOTIONLESSNESS TIME LENGTH ([4]; 500 mg/kg i.p.): -29.07%

Question: Which “ANTIAMNESIC ACTIVITY (percentage of animals that do not trespass the door)” value [1, 5] does the source give for `Cn1c(=O)c2[nH]c(-c3ccccc3)nc2n(C)c1=O` [8-PHENYLTHEOPHYLINE] here?
Answer: The value was 40%.

Question: And the ED50 [3, 6]?
Answer: The ED50 was 6.01 mg/kg.

Question: `CCCn1c(=O)c2[nH]c(C3(NC(=O)c4ccccc4)CCCC3)nc2n(CCC)c1=O` [COMPOUND EX. 6, 8-(1-benzoylaminocyclopentyl)-1,3-dipropylxanthine] was tested. Which Ki (adenosine A1 receptors) did it give?
Answer: Its Ki is 115 nM.

Question: What about the “% VARIATION OF MOTIONLESSNESS TIME LENGTH” value [4, 7] of the same compound?
Answer: Its value is -24.22%.

Question: With `CCCn1c(=O)c2[nH]c(C3(NS(C)(=O)=O)CCCC3)nc2n(CCC)c1=O` [COMPOUND EX. 8, 1,3-dipropyl-8-(1-methanesulfonylaminocyclopenthyl)xanthine] as the compound, how does the Ki (adenosine A1 receptors) read?
Answer: Its Ki is 166 nM.

Question: For `CNCCC=C1c2ccccc2CCc2ccccc21` [NORTRIPTYLINE], which “Δ TEMPERATURE (maximum temperature variation relative to t=0)” value ([2]; 10 mg/kg i.p.) is on record?
Answer: The value was “+2.34 °C”.

Question: `CCCn1c(=O)c2[nH]c(C3(NC(=O)OCC)CCCC3)nc2n(CCC)c1=O` [COMPOUND EX. 10, 1,3-dipropyl-8-(1(N-ethoxycarbonylamino)cyclopentyl)xanthine] was tested. Which Ki (adenosine A1 receptors) did it give?
Answer: The Ki was 108 nM.
